In ChEMBL document CHEMBL5550083, “Structural optimization of a lysine demethylase 5 inhibitor for improvement of its cellular activity” (Bioorg Med Chem, 2024):
Blank lines part the entries; values can stand above or below the compound they belong to. Calls of active or inactive are those of the source. No cut-off for these calls is given here.

How the values were obtained:
[1] = biological target: T1, Lysine-specific demethylase 5B (Homo sapiens, UniProt Q9UGL1); test: Inhibition of KDM5B (unknown origin) at 10 nM incubated for 2 hrs by Alphascreen assay
T1 sequence (Q9UGL1 whole entry): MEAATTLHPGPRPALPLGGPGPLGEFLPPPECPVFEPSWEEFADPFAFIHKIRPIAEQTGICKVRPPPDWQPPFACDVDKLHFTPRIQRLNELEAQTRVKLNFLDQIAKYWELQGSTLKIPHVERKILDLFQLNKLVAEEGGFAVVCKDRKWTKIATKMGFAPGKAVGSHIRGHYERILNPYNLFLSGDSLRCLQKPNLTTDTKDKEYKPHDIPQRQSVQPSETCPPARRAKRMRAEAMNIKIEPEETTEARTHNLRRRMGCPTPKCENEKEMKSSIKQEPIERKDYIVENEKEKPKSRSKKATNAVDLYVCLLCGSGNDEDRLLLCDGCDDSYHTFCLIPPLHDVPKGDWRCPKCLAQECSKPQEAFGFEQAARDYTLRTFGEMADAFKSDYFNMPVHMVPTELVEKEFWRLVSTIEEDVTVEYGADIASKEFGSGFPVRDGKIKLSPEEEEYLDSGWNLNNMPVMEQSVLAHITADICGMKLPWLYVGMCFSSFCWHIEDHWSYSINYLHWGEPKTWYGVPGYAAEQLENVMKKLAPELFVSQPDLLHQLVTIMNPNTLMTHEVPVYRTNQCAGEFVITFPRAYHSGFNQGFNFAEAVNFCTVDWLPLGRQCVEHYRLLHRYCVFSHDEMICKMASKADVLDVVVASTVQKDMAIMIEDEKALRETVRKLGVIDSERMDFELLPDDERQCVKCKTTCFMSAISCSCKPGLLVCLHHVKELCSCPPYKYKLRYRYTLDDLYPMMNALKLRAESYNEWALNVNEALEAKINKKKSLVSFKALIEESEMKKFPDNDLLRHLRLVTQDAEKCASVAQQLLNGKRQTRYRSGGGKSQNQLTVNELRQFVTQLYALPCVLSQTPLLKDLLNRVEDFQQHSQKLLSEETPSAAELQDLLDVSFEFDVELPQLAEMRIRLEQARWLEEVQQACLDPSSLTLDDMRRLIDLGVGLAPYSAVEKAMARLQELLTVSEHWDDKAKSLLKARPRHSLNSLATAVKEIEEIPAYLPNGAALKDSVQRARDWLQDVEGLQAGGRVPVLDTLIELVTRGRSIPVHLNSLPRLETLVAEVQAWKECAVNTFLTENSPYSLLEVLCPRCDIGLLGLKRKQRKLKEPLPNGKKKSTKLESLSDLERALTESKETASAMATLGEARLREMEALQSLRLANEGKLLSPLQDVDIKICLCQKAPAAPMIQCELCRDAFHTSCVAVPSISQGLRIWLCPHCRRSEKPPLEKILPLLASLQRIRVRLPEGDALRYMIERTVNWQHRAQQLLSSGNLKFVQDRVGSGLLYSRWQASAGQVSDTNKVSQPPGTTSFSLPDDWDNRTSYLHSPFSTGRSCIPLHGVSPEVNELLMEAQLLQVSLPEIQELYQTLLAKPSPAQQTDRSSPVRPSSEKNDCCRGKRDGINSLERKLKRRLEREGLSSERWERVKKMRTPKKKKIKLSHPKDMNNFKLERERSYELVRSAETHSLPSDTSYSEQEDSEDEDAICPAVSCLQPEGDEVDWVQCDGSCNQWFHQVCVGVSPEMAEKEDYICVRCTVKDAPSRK

[2] = biological target: T1, Lysine-specific demethylase 5B; test: Inhibition of KDM5B (unknown origin) incubated for 2 hrs by Alphascreen assay
[3] = biological target: Lysine-specific demethylase 6B (Homo sapiens, UniProt O15054); test: Inhibition of KDM6B (unknown origin) incubated for 2 hrs by Alphascreen assay
[4] = biological target: T2, Lysine-specific demethylase 3A (Homo sapiens, UniProt Q9Y4C1); test: Inhibition of KDM3A (unknown origin) incubated for 2 hrs by Alphascreen assay
T2 sequence (Q9Y4C1 whole entry): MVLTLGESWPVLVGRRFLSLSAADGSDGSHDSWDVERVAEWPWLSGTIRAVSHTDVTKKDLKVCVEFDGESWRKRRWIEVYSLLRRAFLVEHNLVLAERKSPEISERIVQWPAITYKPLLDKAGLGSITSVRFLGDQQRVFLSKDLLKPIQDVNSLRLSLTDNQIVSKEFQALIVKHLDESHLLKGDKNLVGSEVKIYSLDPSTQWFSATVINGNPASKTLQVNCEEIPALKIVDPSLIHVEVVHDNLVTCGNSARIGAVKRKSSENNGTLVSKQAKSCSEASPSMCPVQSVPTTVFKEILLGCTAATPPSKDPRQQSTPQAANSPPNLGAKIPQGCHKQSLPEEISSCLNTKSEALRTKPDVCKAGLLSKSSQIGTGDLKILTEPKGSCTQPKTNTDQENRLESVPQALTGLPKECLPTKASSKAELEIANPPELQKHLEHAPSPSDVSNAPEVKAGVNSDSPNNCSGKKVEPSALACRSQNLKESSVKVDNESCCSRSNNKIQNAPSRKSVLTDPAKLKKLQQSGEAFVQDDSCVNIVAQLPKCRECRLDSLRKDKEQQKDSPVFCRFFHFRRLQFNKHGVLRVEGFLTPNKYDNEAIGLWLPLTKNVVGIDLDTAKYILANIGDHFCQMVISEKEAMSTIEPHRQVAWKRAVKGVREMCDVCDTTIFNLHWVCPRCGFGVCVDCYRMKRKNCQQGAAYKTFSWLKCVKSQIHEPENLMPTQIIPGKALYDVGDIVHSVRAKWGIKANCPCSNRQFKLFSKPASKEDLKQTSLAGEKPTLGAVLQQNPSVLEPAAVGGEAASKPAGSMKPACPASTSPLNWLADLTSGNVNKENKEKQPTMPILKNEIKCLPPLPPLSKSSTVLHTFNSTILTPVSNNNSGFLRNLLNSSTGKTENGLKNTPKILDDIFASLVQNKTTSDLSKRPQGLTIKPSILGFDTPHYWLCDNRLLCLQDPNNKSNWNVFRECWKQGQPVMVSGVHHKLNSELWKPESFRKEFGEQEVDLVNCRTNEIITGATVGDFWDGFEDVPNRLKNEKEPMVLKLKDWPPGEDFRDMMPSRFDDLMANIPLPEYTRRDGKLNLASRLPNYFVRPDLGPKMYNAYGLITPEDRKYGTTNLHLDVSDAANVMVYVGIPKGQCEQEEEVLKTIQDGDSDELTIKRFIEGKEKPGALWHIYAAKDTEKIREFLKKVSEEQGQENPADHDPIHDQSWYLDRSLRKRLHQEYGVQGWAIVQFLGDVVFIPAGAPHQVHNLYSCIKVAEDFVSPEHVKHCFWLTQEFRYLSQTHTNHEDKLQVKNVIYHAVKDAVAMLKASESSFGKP

[5] = biological target: Lysine-specific demethylase 5C (Homo sapiens, UniProt P41229); test: Inhibition of KDM5C (unknown origin) incubated for 2 hrs by Alphascreen assay
Chain of Lysine-specific demethylase 5C (P41229 whole entry): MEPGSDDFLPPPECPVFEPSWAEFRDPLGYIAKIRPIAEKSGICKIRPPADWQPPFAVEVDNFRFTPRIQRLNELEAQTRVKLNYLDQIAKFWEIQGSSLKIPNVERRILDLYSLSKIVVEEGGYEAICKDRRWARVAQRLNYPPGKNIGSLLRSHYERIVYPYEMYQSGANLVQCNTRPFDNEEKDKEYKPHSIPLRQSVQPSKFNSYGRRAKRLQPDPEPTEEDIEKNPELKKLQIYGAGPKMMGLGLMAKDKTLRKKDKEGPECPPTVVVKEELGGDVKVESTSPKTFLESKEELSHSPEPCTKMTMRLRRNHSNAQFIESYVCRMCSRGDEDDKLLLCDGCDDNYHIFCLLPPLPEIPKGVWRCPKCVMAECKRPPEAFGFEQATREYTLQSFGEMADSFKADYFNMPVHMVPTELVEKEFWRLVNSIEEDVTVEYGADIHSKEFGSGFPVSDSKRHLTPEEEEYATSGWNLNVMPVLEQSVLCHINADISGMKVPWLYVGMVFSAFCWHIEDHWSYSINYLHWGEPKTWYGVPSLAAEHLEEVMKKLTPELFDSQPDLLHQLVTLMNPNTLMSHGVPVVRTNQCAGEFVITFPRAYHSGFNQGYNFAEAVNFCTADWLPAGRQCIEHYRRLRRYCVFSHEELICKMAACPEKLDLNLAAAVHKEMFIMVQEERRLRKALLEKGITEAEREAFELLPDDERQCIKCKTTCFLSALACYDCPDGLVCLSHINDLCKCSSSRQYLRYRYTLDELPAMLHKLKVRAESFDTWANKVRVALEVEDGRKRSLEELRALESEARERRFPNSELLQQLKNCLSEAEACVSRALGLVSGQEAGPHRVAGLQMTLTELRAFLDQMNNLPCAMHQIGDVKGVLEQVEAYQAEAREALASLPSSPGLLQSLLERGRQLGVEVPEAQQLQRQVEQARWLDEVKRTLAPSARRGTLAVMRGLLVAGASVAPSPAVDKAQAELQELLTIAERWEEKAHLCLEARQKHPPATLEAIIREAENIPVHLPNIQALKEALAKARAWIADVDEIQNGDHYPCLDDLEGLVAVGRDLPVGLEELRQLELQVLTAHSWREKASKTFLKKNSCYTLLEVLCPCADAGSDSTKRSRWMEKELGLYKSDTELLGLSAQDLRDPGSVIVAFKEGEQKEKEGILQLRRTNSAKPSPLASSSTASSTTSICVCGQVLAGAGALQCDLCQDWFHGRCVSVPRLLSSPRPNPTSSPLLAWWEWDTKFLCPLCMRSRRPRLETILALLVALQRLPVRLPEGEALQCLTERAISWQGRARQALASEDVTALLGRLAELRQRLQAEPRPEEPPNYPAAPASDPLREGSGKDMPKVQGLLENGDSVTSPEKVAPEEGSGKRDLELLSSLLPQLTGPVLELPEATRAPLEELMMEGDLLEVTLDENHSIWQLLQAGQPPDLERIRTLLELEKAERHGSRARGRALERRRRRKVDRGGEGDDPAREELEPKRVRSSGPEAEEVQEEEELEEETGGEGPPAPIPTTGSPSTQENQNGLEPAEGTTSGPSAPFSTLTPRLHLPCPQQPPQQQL

[6] = biological target: T3, Lysine-specific demethylase 4A (Homo sapiens, UniProt O75164); test: Inhibition of KDM4A (unknown origin) incubated for 2 hrs by Alphascreen assay
T3 sequence (O75164 whole entry): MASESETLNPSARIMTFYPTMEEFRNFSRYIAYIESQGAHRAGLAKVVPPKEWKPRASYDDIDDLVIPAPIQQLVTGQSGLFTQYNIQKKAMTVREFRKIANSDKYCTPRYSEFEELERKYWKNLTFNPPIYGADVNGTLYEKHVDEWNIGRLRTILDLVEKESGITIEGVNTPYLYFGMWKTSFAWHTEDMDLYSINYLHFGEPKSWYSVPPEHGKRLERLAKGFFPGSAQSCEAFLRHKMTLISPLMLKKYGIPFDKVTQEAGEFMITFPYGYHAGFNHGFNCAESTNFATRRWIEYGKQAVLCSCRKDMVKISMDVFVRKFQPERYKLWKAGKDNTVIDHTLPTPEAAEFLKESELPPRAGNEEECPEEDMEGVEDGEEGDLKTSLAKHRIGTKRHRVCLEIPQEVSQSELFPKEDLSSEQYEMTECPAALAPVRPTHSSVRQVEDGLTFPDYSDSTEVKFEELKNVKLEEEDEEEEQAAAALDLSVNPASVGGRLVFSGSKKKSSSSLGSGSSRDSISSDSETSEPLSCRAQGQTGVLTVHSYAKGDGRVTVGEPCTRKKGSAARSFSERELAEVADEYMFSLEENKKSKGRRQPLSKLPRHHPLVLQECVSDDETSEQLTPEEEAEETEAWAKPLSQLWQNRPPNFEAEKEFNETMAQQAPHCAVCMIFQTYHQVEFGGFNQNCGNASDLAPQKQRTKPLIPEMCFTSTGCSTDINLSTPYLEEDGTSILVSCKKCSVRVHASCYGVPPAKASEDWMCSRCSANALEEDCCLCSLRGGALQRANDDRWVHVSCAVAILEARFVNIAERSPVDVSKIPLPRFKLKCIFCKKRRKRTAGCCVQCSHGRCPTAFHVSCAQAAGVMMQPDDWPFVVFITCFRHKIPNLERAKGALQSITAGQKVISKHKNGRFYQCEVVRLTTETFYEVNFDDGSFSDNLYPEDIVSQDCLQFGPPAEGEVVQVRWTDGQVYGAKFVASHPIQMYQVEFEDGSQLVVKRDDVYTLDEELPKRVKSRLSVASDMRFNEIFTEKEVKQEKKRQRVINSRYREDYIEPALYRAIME

[7] = biological target: Lysine-specific demethylase 5A (Homo sapiens, UniProt P29375); test: Inhibition of KDM5A (unknown origin) incubated for 2 hrs by Alphascreen assay
Chain of Lysine-specific demethylase 5A (P29375 whole entry): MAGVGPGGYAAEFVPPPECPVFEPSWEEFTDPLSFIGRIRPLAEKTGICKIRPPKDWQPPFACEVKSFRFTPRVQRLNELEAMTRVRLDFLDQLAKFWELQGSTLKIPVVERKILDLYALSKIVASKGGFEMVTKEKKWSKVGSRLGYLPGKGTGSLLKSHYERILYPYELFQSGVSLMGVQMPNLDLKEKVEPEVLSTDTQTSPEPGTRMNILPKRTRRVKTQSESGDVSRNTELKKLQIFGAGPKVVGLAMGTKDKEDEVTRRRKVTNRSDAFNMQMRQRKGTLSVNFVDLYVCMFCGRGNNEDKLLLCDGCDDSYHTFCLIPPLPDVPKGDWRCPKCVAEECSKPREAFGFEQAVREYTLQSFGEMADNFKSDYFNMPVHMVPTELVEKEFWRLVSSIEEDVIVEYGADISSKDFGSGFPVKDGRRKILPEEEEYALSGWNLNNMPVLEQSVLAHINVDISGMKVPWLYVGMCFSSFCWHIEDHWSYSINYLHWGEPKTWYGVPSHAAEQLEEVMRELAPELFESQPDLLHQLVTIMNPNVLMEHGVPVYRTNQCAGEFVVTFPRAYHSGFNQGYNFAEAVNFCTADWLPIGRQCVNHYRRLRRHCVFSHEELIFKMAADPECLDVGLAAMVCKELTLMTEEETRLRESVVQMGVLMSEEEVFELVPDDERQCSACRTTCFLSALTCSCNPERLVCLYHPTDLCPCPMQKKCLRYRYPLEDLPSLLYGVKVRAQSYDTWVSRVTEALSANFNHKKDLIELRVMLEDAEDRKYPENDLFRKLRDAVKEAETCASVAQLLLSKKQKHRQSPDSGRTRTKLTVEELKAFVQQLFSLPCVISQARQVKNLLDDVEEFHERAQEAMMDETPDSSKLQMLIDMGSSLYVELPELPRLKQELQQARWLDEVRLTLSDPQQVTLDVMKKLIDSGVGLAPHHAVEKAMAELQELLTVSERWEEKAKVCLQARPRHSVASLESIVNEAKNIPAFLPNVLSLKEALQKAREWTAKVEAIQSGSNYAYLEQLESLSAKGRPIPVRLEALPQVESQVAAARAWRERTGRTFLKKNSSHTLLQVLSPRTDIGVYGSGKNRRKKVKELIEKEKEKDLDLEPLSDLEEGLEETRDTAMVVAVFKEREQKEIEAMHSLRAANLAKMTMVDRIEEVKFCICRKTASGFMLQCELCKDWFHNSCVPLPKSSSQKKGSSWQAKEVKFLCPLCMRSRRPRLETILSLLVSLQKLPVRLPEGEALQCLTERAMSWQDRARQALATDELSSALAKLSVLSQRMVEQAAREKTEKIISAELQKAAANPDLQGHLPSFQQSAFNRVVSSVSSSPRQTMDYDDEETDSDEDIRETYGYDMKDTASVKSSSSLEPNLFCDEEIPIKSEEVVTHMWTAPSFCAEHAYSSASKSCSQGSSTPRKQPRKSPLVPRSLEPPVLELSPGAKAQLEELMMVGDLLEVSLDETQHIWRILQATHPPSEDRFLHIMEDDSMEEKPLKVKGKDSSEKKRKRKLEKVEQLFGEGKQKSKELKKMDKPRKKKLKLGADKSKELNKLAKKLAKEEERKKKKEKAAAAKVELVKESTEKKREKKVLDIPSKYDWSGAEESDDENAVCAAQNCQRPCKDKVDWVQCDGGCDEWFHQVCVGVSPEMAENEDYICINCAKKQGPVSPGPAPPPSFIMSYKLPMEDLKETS

A549 [8] = test: Inhibition of KDM5 in human A549 cells assessed as increase in H3K4me3 level at 400 nM by Western blot analysis; assay type: cell-based; details: time 1-18 hrs, TDE = time-dependent effect
A549 [9] = test: Inhibition of KDM5 in human A549 cells assessed as increase in H3K4me3 level at 400 nM incubated for 18 hrs by Western blot analysis; assay type: cell-based
A549 [10] = test: Inhibition of KDM5 in human A549 cells assessed as increase in H3K4me3 level incubated for 18 hrs by Western blot analysis; assay type: cell-based; details: dose 100-400 nM
[11] = Apparent permeability of the compound at 100 uM incubated for 4 hrs by PAMPA assay; assay type: ADME
[12] = Lipophilicity, log D of the compound in PBS at 100 uM at pH 7.4 incubated for 20 mins by UPLC analysis; assay type: physicochemical
A549 [13] = test: Inhibition of KDM6 in human A549 cells assessed as increase in H3K27me3 level at 100 to 400 nM incubated for 18 hrs by Western blot analysis; assay type: cell-based; details: dose 100-400 nM
A549 [14] = test: Inhibition of KDM4 in human A549 cells assessed as increase in H3K9me3 level at 100 to 400 nM incubated for 18 hrs by Western blot analysis; assay type: cell-based; details: dose 100-400 nM

SMILES: CCN(CCN(Cc1ccccc1)Cc1ccccc1)C(=O)CNCc1cc(C(=O)O)ccn1
inhibition activity call [1]: Active

SMILES: CCN(CCN(C)Cc1ccccc1)C(=O)CNCc1cc(C(=O)O)ccn1
inhibition activity call [1]: Active
IC50 [2]: 8.42 nM

SMILES: CC(C)NCC(O)COc1cccc2ccccc12 (stereo not given) [PROPRANOLOL]
Papp at 4 h, 100 µM [11]: 3.9 ×10⁻⁶ cm/s

SMILES: CCN(CCN(C)C)C(=O)CNCc1cc(C(=O)O)ccn1
IC50 [3]: > 5000 nM
IC50 [4]: > 50000 nM
IC50 [5]: 9.92 nM
IC50 [2]: 2.23 nM
IC50 [6]: 172 nM
IC50 [7]: 1.42 nM

SMILES: CCN(CCN(C)C(C)C)C(=O)CNCc1cc(C(=O)O)ccn1
inhibition activity call [1]: Active
IC50 [2]: 3.05 nM

SMILES: CCN(CC)CCN(CC)C(=O)CNCc1cc(C(=O)O)ccn1
inhibition activity call [1]: Active

SMILES: CCCN(CCC)CCN(CC)C(=O)CNCc1cc(C(=O)O)ccn1
inhibition activity call [1]: Active

SMILES: CCN(CCN(C(C)C)C(C)C)C(=O)CNCc1cc(C(=O)O)ccn1
inhibition activity call [1]: Active

Further lines, with some results ahead:

IC50 [3]: > 5000 nM
IC50 [4]: > 50000 nM
IC50 [5]: 13.6 nM
IC50 [6]: 389 nM
IC50 [7]: 1.22 nM
SMILES: CCCCN(C)CCN(CC)C(=O)CNCc1cc(C(=O)O)ccn1

Papp at 4 h, 100 µM [11]: 0.6 ×10⁻⁶ cm/s
logD at 20 min, 100 µM [12]: 2.2
SMILES: CCCCN(C)CCN(CC)C(=O)CNCc1cc(C(=O)OCC)ccn1
inhibition (A549 [8]): Tde
inhibition (A549 [9]): Active
inhibition (A549 [10]): Dose-Dependent Effect
inhibition (A549 [13]): inactive
inhibition (A549 [14]): inactive

IC50 [2]: 207 nM
Papp at 4 h, 100 µM [11]: 0.1 ×10⁻⁶ cm/s
logD at 20 min, 100 µM [12]: 1.5
SMILES: CCOC(=O)c1ccnc(CNCC(=O)N(CC)CCN(C)C)c1

inhibition activity call [1]: Active
SMILES: CCCCN(CCCC)CCN(CC)C(=O)CNCc1cc(C(=O)O)ccn1

inhibition activity call [1]: Active
IC50 [2]: 6.32 nM
SMILES: CCCN(C)CCN(CC)C(=O)CNCc1cc(C(=O)O)ccn1

inhibition activity call [1]: Active
IC50 [2]: 6.94 nM
SMILES: CCN(C)CCN(CC)C(=O)CNCc1cc(C(=O)O)ccn1
